Measurements reported in patent US9334285B2, “Aldosterone synthase inhibitors” (Boehringer Ingelheim International GmbH, priority 2014, dated 2016).
Read-outs that look alike come from different tables or passages of the source.

What was measured:
[1] = target: T1, aldosterone synthase (CYP11B2) (Macaca fascicularis, UniProt A0A2K5UPL9); experiment: Inhibition of aldosterone synthase, cynomolgus adrenal mitochondria, aldosterone quantified by mass spectrometry; assay type: biochemical, cynomolgus monkey; conditions: 2 μM corticosterone, 90 minutes at 37° C.
T1 construct: employ cynomolgus adrenal gland mitochondria as the source of aldosterone synthase (CYP11B2); from tissue; host or cells: cynomolgus monkey adrenal gland mitochondria
T1 sequence (A0A2K5UPL9 1-503): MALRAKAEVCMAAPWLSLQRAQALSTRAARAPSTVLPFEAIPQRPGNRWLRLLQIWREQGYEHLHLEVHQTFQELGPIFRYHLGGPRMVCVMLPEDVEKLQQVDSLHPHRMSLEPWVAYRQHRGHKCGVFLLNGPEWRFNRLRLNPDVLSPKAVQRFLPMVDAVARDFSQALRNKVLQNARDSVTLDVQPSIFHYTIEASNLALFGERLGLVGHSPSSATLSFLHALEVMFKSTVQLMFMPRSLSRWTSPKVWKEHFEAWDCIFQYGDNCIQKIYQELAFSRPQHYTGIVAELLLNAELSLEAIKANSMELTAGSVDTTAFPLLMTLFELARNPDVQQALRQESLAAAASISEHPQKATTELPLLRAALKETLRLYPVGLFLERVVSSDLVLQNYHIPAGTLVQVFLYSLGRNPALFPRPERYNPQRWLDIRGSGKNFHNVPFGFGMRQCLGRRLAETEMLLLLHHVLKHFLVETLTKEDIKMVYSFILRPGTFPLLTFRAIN
Protocol: The aldosterone synthase and cortisol synthase inhibition assays employ cynomolgus adrenal gland mitochondria as the source of aldosterone synthase (CYP11B2) and cortisol synthase (CYP11B1). […] One unit of CYP11B2 and CYP11B1 activity in these preparations is defined as the amount of enzyme that generates 1 pmol of product in one hour under the conditions described.
The compounds of the invention may be evaluated for aldosterone synthase inhibition by the following assay:
Assays are performed in 96-well format in a final volume of 60 microL/well, containing 100 mM potassium phosphate, pH 7.4, 1% (v/v) DMSO, and additionally, 2 μM of corticosterone and 50 units of CYP11B2 activity. Reactions are started by the addition of NADPH to 1 mM and allowed to proceed for 90 minutes at 37° C. Reactions are terminated by the addition of 60 μL of MeCN containing an internal standard for mass spectrometry. One hundred microliters are then transferred to a glass filter plate and centrifuged at 570×g for 5 minutes and the filtrate is collected. Reaction product aldosterone is quantified by mass spectrometry. To determine the assay blank value (0% activity), NADPH is omitted from some reactions.
(§1) Dose dependent inhibition is quantified by the inclusion of compound at various concentrations. Maximum activity (100%) is defined by reactions containing NADPH, but without compound.

[2] = target: cortisol synthase (CYP11B1) (Macaca fascicularis, UniProt A0A2K5ULY1); experiment: Inhibition of cortisol synthesis, cynomolgus adrenal mitochondria, 11-deoxycortisol as substrate; assay type: biochemical, cynomolgus monkey; conditions: 150 units of CYP11B1, 11-deoxycortisol as substrate
Protocol: The aldosterone synthase and cortisol synthase inhibition assays employ cynomolgus adrenal gland mitochondria as the source of aldosterone synthase (CYP11B2) and cortisol synthase (CYP11B1). Mitochondria are prepared from frozen cynomolgus monkey adrenal glands according to Method A described in by J. D. McGarry et al. (Biochem. J., 1983, 214, 21-28), with a final resuspension in the AT buffer described in R. Yamaguchi et al. (Cell Death and Differentiation, 2007, 14, 616-624), frozen as aliquots in liquid nitrogen and stored at −80° C. until use. One unit of CYP11B2 and CYP11B1 activity in these preparations is defined as the amount of enzyme that generates 1 pmol of product in one hour under the conditions described.
Assays are performed as for aldosterone synthase except for the use of 150 units of CYP11B1, 11-deoxycortisol as substrate and cortisol measured as product.

rhCYP17A1 = target: T2, rhCYP17A1 (Homo sapiens, UniProt P05093); experiment: Inhibition of CYP17A1, progesterone to 17-α-hydroxyprogesterone, mass spectrometry; assay type: biochemical; conditions: rhCYP17A1, 150 nM progesterone, 15 minutes at 37° C.; read-out: CYP17A1 IC50
T2 construct: purchased Cypex
T2 sequence (P05093 1-508): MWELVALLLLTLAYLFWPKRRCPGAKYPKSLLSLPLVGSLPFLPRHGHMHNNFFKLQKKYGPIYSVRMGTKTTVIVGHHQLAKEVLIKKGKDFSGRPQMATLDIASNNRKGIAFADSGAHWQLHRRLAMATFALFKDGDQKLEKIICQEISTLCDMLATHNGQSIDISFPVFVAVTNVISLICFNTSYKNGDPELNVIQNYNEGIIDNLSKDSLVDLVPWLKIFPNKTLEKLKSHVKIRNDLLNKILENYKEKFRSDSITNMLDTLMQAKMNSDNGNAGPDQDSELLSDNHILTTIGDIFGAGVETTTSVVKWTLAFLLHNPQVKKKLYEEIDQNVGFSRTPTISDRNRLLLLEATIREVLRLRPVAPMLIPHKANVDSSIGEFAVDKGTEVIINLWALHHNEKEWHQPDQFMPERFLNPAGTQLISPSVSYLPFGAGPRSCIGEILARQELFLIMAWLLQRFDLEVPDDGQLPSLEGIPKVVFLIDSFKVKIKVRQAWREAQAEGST
Protocol: Compounds of the invention may also be evaluated for inhibition of CYP17A1 via the following assay:
Reactions are started by the addition of NADPH to 1 mM and allowed to proceed for 15 minutes at 37° C. Reactions are terminated by the addition of 40 μL of MeCN containing an internal standard for mass spectrometry. The plates are centrifuged at 3000 rpm for 5 min and the reaction product 17-α-hydroxyprogesterone is quantified by mass spectrometry. To determine the assay blank value (0% activity), NADPH is omitted from some reactions.
as §1

CYP19A1 = target: T3, CYP19A1 (Homo sapiens, UniProt P11511); experiment: Inhibition of CYP19A1 (Kragie et al.); assay type: biochemical; conditions: read-out: CYP19A1 IC50
T3 sequence (P11511 1-503): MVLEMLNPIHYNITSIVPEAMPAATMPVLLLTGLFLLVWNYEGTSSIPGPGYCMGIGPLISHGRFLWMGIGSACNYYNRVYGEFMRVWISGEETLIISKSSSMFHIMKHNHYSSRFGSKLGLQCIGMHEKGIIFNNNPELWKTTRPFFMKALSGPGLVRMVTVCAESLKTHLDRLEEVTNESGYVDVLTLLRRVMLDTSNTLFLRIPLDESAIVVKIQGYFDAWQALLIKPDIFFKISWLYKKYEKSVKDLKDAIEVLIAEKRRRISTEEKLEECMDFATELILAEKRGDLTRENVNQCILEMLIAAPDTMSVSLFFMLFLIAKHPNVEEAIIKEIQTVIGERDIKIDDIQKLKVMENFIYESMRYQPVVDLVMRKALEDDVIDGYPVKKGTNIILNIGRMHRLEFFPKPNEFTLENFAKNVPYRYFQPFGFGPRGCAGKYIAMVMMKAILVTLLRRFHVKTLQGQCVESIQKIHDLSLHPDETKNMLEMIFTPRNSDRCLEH

[3] = cynomolgus adrenal mitochondria, read-out: Cortisol Inhibition IC50
[4] = Cortisol Inhibition IC50, cynomolgus adrenal mitochondria

| Structure (SMILES) | IC50 [1] | IC50 [2, 3] | IC50 (rhCYP17A1) | IC50 (CYP19A1) | IC50 [2, 4] |
| --- | --- | --- | --- | --- | --- |
| C[C@@]1(CO)Cc2ncn(-c3ccc(C#N)c(Cl)c3)c2C(=O)O1 (single isomer, unassigned) [Compound 29B] | 0.048 µM | – | > 20 µM | > 20 µM | 23 µM |
| CC1(C)Cc2ncn(-c3ccc(C#N)c(F)c3)c2C(=O)O1 [Compound 10, 4-{6,6-dimethyl-4-oxo-3H,4H,6H,7H-pyrano[3,4-d]imidazol-3-yl}-2-fluorobenzonitrile] | 0.043 µM | – | > 20 µM | > 20 µM | 4.2 µM |
| CC1(C)Cc2ncn(-c3ccc(C#N)cc3)c2C(=O)O1 [Compound 3, 4-{6,6-dimethyl-4-oxo-3H,4H,6H,7H-pyrano[3,4-d]imidazol-3-yl}benzonitrile] | 0.035 µM | 8.7 µM | > 20 µM | > 20 µM | – |
| Cc1cc(-n2cnc3c2C(=O)OC(C)(CO)C3)ccc1C#N (single isomer, unassigned) [Compound 39A, 4-[6-(hydroxymethyl)-6-methyl-4-oxo-3H,4H,6H,7H-pyrano[3,4-d]imidazol-3-yl]-2-methylbenzonitrile] | 0.011 µM | – | > 20 µM | > 20 µM | 1.4 µM |
| Cc1cc(C#N)ccc1-n1cnc2c1C(=O)OC(C)(C)C2 [Compound 13, 4-{6,6-dimethyl-4-oxo-3H,4H,6H,7H-pyrano[3,4-d]imidazol-3-yl}-3-methylbenzonitrile] | 0.0063 µM | – | > 20 µM | > 20 µM | 2.2 µM |
| CN1C(=O)CCc2cc(-n3cnc4c3C(=O)OC(C)(C)C4)ccc21 [Compound 5, 6-{6,6-dimethyl-4-oxo-3H,4H,6H,7H-pyrano[3,4-d]imidazol-3-yl}-1-methyl-1,2,3,4-tetrahydroquinolin-2-one] | 0.11 µM | 40 µM | > 20 µM | > 20 µM | – |
| CC1(C(=O)O)Cc2ncn(-c3ccc(C#N)c(Cl)c3)c2C(=O)O1 (centres unmarked) [Compound 44, 3-(3-Chloro-4-cyano-phenyl)-6-methyl-4-oxo-3,4,6,7-tetrahydro-pyrano[3,4-d]imidazole-6-carboxylic acid] | 0.67 µM | – | > 20 µM | > 20 µM | > 30 µM |
| CC1(C)Cc2ncn(-c3ccc(F)c(F)c3)c2C(=O)O1 [Compound 2, 3-(3,4-difluorophenyl)-6,6-dimethyl-3H,4H,6H,7H-pyrano[3,4-d]imidazol-4-one] | 0.091 µM | 3.4 µM | > 20 µM | > 20 µM | – |

Now from value to molecule, other results behind:

| IC50 [1] | IC50 [2, 3] | IC50 (rhCYP17A1) | IC50 (CYP19A1) | Structure (SMILES) | IC50 [2, 4] |
| --- | --- | --- | --- | --- | --- |
| 0.1 µM | 26 µM | > 20 µM | > 20 µM | CC1Cc2ncn(-c3ccc(C#N)cc3)c2C(=O)O1 (single isomer, unassigned) [Compound 16A, 4[6-methyl-4-oxo-3H,4H,6H,7H-pyrano[3,4-d]imidazol-3-yl]benzonitrile] | – |
| 0.046 µM | 7.1 µM | > 20 µM | > 20 µM | CC1(C)Cc2ncn(-c3ccc(C#N)cc3F)c2C(=O)O1 [Compound 19, 4-{6,6-dimethyl-4-oxo-3H,4H,6H,7H-pyrano[3,4-d]imidazol-3-yl}-3-fluorobenzonitrile] | – |
| 0.21 µM | 24 µM | > 20 µM | > 20 µM | Cc1cc(C#N)ccc1-n1cnc2c1C(=O)OC(C)(CO)C2 (single isomer, unassigned) [Compound 31B, 4-[6-(hydroxymethyl)-6-methyl-4-oxo-3H,4H,6H,7H-pyrano[3,4-d]imidazol-3-yl]-3-methylbenzonitrile] | – |
| 0.076 µM | > 30 µM | > 20 µM | > 20 µM | CC1(CO)Cc2ncn(-c3ccc4c(c3)CCO4)c2C(=O)O1 (single isomer, unassigned) [Compound 42B, 3-(2,3-Dihydro-benzofuran-5-yl)-6-hydroxymethyl-6-methyl-6,7-dihydro-3H-pyrano[3,4-d]imidazol-4-one] | – |
| 0.035 µM | 5.3 µM | > 20 µM | > 20 µM | CC1(C)Cc2ncn(-c3cccc(Cl)c3F)c2C(=O)O1 [Compound 8, 3-(3-chloro-2-fluorophenyl)-6,6-dimethyl-3H,4H,6H,7H-pyrano[3,4-d]imidazol-4-one] | – |
| 0.031 µM | 5.2 µM | > 20 µM | > 20 µM | CC1(CO)Cc2ncn(-c3ccc(Cl)c(Cl)c3)c2C(=O)O1 (single isomer, unassigned) [Compound 30B, 3-(3,4-dichlorophenyl)-6-(hydroxymethyl)-6-methyl-3H,4H,6H,7H-pyrano[3,4-d]imidazol-4-one] | – |
